Values quoted from earlier work as cited in patent US20250295727A1, “STABLE, READY-TO-ADMINISTER AQUEOUS FORMULATIONS OF DALBAVANCIN” (HIKMA PHARMACEUTICALS USA INC., priority 2022, published 2025).

Conditions: lyophilized
[1] = storage at 25° C. for 12 months

dalbavancin [unformulated lyophilized dalbavancin]
decrease of B0 [1]: 8.5%
increase of MAG [1]: 10.2%
decrease in dalbavancin's primary factor B0 (storage for 36 months at 5° C.): 3.6%
increase in MAG (storage for 36 months at 5° C.): 2.9%
